Active and inactive are the calls of the source.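 The calls were made as follows: active = maximal inhibition of USP17 at or above 30% in the confirmation dose-response, a value not among the printed readouts; inactive = the rest.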
molecular target: Ubiquitin carboxyl-terminal hydrolase 17-like protein 5 (Homo sapiens) (UniProt A8MUK1); experiment: ubiquitin-specific protease 17 DUB inhibitors, concentration-effect assay, cell-free, verification of initial screening actives (AID 1645864); details: purified USP17, ubiquitin-rhodamine cleavage fluorescence, 3 h
Sequence (A8MUK1 whole entry, looked up): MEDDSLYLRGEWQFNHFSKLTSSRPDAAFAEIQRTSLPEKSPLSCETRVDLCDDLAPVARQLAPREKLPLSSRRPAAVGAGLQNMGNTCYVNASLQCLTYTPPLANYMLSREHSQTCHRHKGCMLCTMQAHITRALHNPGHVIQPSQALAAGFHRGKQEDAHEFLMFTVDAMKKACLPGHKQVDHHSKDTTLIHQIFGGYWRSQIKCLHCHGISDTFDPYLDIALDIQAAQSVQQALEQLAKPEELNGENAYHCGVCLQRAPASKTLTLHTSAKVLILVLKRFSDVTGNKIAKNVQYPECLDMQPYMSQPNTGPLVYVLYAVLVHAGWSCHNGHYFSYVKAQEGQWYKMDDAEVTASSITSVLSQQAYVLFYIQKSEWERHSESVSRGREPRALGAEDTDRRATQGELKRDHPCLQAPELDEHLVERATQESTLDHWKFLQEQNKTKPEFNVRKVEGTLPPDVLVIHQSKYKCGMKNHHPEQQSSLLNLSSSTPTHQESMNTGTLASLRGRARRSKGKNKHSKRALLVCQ

IC50, inactive:
COc1cccc(NC(=O)c2ccc(F)cc2Cl)c1 > 50 µM
CCOC(=O)c1cc2c(ccn2C)n1CC(=O)N1CCC(C)CC1 > 50 µM
Cc1ccccc1C(=O)Nc1ccc(Cc2ccc(NC(=O)c3ccccc3C)c(O)c2)cc1O > 50 µM
N#Cc1ccccc1COC(=O)c1ccc2ccccc2n1 > 50 µM
O=C(NC1CCS(=O)(=O)C1)c1ccc(N2CCC(Cc3ccccc3)CC2)nn1 (centres undefined) > 50 µM
Cc1cc(C)c2nc3c(cc2c1)CN(Cc1ccco1)C(=O)O3 > 50 µM
O=C(c1cnccn1)N1CCc2[nH]c3ccc(F)cc3c2C1 > 50 µM
CCC(C)Oc1cccc(C(=O)Nc2ccc(CN3CCOCC3)cc2)c1 (centres undefined) > 50 µM
O=C(c1ccco1)N1CCCC2(C1)Nc1cccnc1NC2=NC1CCCC1 (centres undefined) > 50 µM
Cn1cccc1C(=O)N1CCCC2(C1)Nc1cccnc1NC2=NC1CCCC1 (centres undefined) > 50 µM
Cc1cc(Cl)ccc1NC(=O)c1cc(-c2cccnc2)n[nH]1 > 50 µM
COC(=O)C1C(c2ccc(OC)cc2)C2(C(=O)c3ccccc3C2=O)C2C=Cc3ccccc3N12 (centres undefined) > 50 µM
CCn1c(=N)n(CCOc2ccc(F)cc2)c2ccccc21 > 50 µM
Cc1ccc(C(=O)Nc2ccc(S(=O)(=O)N3CCCC3)cc2)cc1Br > 50 µM
CC(C)(C)n1ncc2c(=O)n(Cc3cccc([N+](=O)[O-])c3)cnc21 > 50 µM
O=C(CCCCn1c(=O)c2ccccc2n(CC(=O)Nc2ccc(F)c(Cl)c2)c1=O)NCc1ccco1 > 50 µM
Cc1ccccc1-c1nc(CN(C)S(=O)(=O)c2ccccc2)c(C)o1 > 50 µM
CC(=O)c1ccc(Cc2ncc(C(F)(F)F)cc2Cl)s1 > 50 µM
O=C(COc1nc2ccccc2nc1N1CCOCC1)NC(c1ccccc1)c1ccccc1 > 50 µM
Cc1cc(Cl)ccc1Nc1nc(Nc2cccc(F)c2)nc2nccnc12 > 50 µM
O=C(Nc1cc(Cl)ccc1-n1cncn1)c1ccc(S(=O)(=O)N2CCCC2)cc1 > 50 µM
CC1CCc2c(sc3nc(CC#N)[nH]c(=O)c23)C1 (centres undefined) > 50 µM
COCCNC(=O)c1ccnn1-c1ccc2ccc(-c3cccnc3)cn12 > 50 µM
O=C(Nc1ccc2c(c1)OCCO2)C1CCN(C(=O)c2ccccc2)CC1 > 50 µM
CN1CC2CN(C(=O)c3ccc(F)cc3)CCN2Cc2ccccc21 (centres undefined) > 50 µM
CCc1nnc(NC(=O)c2nnn(-c3ccccc3Cl)c2C)s1 > 50 µM
O=C(NCC1CC1)C1CCCN(c2ccc(-c3ccccc3)nn2)C1 (centres undefined) > 50 µM
Cc1cccc(C(=O)N2CCc3cc(-c4nc(NC(=O)CNc5ccccc5)sc4C)ccc32)c1 > 50 µM
Cc1noc(NS(=O)(=O)c2ccc(NC(=O)CSc3ccc4ccccc4c3)cc2)c1C > 50 µM
O=[N+]([O-])c1ccc2c(c1)nc1n2CCN(Cc2ccco2)C1 > 50 µM
Cn1c(CCN2CCCC2)nc2cc(NC(=O)c3ccccc3)ccc21 > 50 µM
Cc1noc(C)c1S(=O)(=O)Nc1ccc(C(=O)Nc2ccc3c(c2)OCCO3)cc1 > 50 µM
CCN(Cc1ccccc1)S(=O)(=O)c1ccc(C(=O)Nc2ccc3c(c2)OCCO3)cc1 > 50 µM
O=C(NCc1ccc(Cl)cc1)c1ccc(N2CCCS2(=O)=O)cc1 > 50 µM
CCc1nc2cc(NC(=O)c3cccc(N4CCCC4=O)c3)ccc2n1C > 50 µM
Cc1nn(-c2ccccc2)c(C)c1C(=O)OCC(=O)Nc1cccc(C#N)c1 > 50 µM
COc1cc(C(=O)Nc2ccc(-c3csc(C)n3)cc2)cc(OC)c1OC > 50 µM
Cc1ccc(Cn2nnc(-c3noc(-c4ccc[nH]4)n3)c2C)cc1 > 50 µM
Cc1nc(-c2noc(-c3ccncc3)n2)cn1CC(=O)N1CCN(c2ccc(F)cc2)CC1 > 50 µM
Cc1nc(CN2CCn3c(Cn4cccn4)cnc3C2C)cs1 (centres undefined) > 50 µM
O=C(Cc1ccc(Cl)c(Cl)c1)OCC(=O)c1c[nH]c2ccccc12 > 50 µM
CCOc1ccc(CCNC(=O)CCC(=O)Nc2ccc3nc(N4CCN(C)CC4)cc(C)c3c2)cc1OCC > 50 µM
CC(C)N1CC2CN(C(=O)c3ccccc3)CCN2Cc2ccccc21 (centres undefined) > 50 µM
COc1ccc(C(=O)Nc2ccc3c(c2)Sc2ncccc2C(=O)N3C)cn1 > 50 µM
Cc1ccc(NC(=O)c2c3c(nc4ccccc24)CCCCC3)c(C)c1 > 50 µM
O=C(Nc1ccccc1)c1cn(-c2cc(N3CCCC3)ncn2)cn1 > 50 µM
O=C(Cc1noc2ccccc12)N1CCN(c2ccc([N+](=O)[O-])cc2)CC1 > 50 µM

IC50, active:
CC1CCc2sc(NC(=O)c3ccccc3Oc3ccccc3)c(C(N)=O)c2C1 (centres undefined) 6.96 µM
N#Cc1cccnc1N1CCN(C(=O)Nc2cccc3ccccc23)CC1 29.2 µM
Cc1c(C(=O)Nc2cccc(C(F)(F)F)c2)cnn1-c1ccccn1 34.4 µM
Cc1ccc(C(=O)Nc2nc3n(n2)C(c2ccccc2)CC(=O)N3)cc1 (centres undefined) 27.9 µM
CC1=C[C@@H](C)CC[C@H]2O[C@@H](C3=C(O)C(=O)C(C)=C4O[C@](O)(C=C43)[C@@H](C)C[C@H](C)C1)[C@H](C)[C@@H](O)[C@H]2C 16.1 µM
Cc1ccc2[nH]c(=O)c(-c3nc4ccc(C)cn4c3NCc3ccc(F)cc3)cc2c1 1.98 µM
O=C(Cn1c(=O)nc(-c2ccccc2)c2ccccc21)NCc1ccc2c(c1)OCO2 27.8 µM
Cc1ccc(-n2cc(C(=O)NCc3cccnc3)nn2)cc1C 22.3 µM
CCNc1oc(-c2ccc(S(=O)(=O)N3CCCCC3)cc2)nc1C#N 24.2 µM
Cc1c(S(=O)(=O)NC2CCCCNC2=O)sc2ccc(Cl)cc12 (centres undefined) 43.1 µM
Fc1ccc(-c2noc(-c3nnc(NCc4cccnc4)c4ccccc34)n2)cc1 2.59 µM
c1ccc(-c2nc(-c3nnn(-c4ccccc4)c3-c3ccncc3)no2)cc1 3.91 µM
CCCN1C=NS(=O)(=O)c2cc(C(=O)Nc3ccc(OC)c(Cl)c3)ccc21 40.9 µM
CCn1c(SCC(=O)c2c(N)n(CC(C)C)c(=O)n(C)c2=O)nnc1-c1ccccc1 16 µM
Cc1ccc(NC(=O)CNC(=O)c2cc3ccccc3o2)cc1 14.6 µM
COc1c2c(cc3cc(O)c4c(=O)cc(C)oc4c13)CCC2=O 34.3 µM
COc1ccc(-c2cc3c(=O)n(CC(=O)Nc4ccccc4Cl)ccn3n2)cc1 5.49 µM
Cc1nnc(Sc2cc(C(=O)NCCN3CCCC3)c3ccccc3n2)s1 30 µM
CSc1cccc(NC(=O)COc2cccc3ccccc23)c1 2.04 µM
Cc1[nH]nc(NC(=O)C2COc3ccccc3O2)c1-c1ccccc1 (centres undefined) 34.7 µM
Cc1nc2sc(C(=O)Nc3ccccc3Br)c(N)c2c(C)c1C 1.12 µM
O=C(CN1CCCCC1)Nc1nnc(-c2ccc([N+](=O)[O-])cc2)s1 19.9 µM
O=[N+]([O-])c1ccc(N2CCN(c3ncnc4c3[nH]c3ccc(F)cc34)CC2)cc1 0.247 µM
Cc1ccccc1NC(=O)c1cc(S(=O)(=O)N2CCCCCC2)ccc1Cl 35.2 µM
Cc1cc(NCC2CC2)n2nc(Nc3cc(Cl)ccc3C)nc2n1 30.4 µM
CCC(C)c1ccc(O[C@@H]2O[C@@H]3COC(c4ccccc4)O[C@H]3[C@H](O)[C@H]2NC(C)=O)cc1 (some centres undefined) 16.6 µM
Cc1cccc(NC(=O)Cn2c(N3CCOCC3)nc3cc(C)n(C)c3c2=O)c1 27.6 µM
Oc1cc(OCc2cccc(C(F)(F)F)c2)ccc1-c1ccn[nH]1 21.2 µM
CCCCNc1nc2c(-c3ccccc3)nnn2c2ccccc12 3.08 µM
Cc1ccc(CNC(=O)CCCn2c(=O)c3sccc3n(CC(=O)Nc3cc(Cl)ccc3C)c2=O)cc1 2.83 µM
Cc1cc(N2CCC(NC(=O)NCc3ccc(F)cc3)C2=O)ccc1F (centres undefined) 9.01 µM
Cn1c2ccccc2c2ncn(Cc3ccc(F)cc3)c(=O)c21 43.9 µM
COc1ccc(NS(=O)(=O)c2cc(NC(=O)CCc3nc4ccccc4s3)ccc2C)cc1 28.1 µM
c1ccc(-c2ccc(NCc3ccc4c(c3)OCO4)nn2)cc1 7.45 µM
Cc1ccc(NC(=O)c2ccc3nn(CC(=O)Nc4ccc(F)cc4F)c(=O)n3c2)cc1 2.79 µM
CCCC(O)CCCCCCCc1cc(O)cc(O)c1C(=O)OC(CCC)CCCCCCCc1cc(O)cc(O)c1 (centres undefined) 28.6 µM
Cc1ccc2cccc(OCc3nnc(SCC(=O)c4ccc(Cl)cc4)n3C)c2n1 2.65 µM
O=C(Nc1ccc(N2CCOCC2)cc1)c1cc(=O)[nH]c2ccccc12 31 µM
CC(C)=CCC/C(C)=C/Cc1c(O)cc2c(c1O)C(=O)OC2 1.7 µM
CNC(=O)CC1NC(=O)c2csc(n2)-c2ccc(-c3nc(C4=NC(C(=O)N5CCCC5C(N)=O)CO4)cs3)nc2-c2csc(n2)-c2csc(n2)C(C(O)c2ccccc2)NC(=O)CNC(=O)c2nc(sc2COC)C(C(C)C)NC(=O)c2nc1sc2C (centres undefined) 29.6 µM
O=[N+]([O-])c1ccc(NCc2ccc(-c3cccs3)s2)nc1 39.1 µM
Cc1ccc(Cn2c(=O)n(CCC(=O)NCCc3ccccc3)c(=O)c3ccccc32)cc1 11.7 µM
CCc1ccc(NC(=O)COC(=O)c2n[nH]c3ccccc23)cc1 3.42 µM
CCOc1ccc(NC(=O)Cn2c(=O)n(CCCCCC(=O)NCc3ccc(F)cc3)c(=O)c3sccc32)cc1 2.16 µM
Cn1c2ccccc2c(=O)c2c(=O)n(Cc3ccccc3)c(-c3ccco3)nc21 1.55 µM
COc1ccc(CCNC(=O)CCCn2c(=O)c3ccccc3n(CC(=O)OCc3ccccc3)c2=O)cc1OC 23.1 µM
O=C(COc1ccc(Cl)cc1Cl)Nc1ccccc1-c1nc2ccccc2[nH]1 2.12 µM
CC(CCc1ccccc1)NC(=O)Cn1c(=O)c2cccn2c2ccccc21 (centres undefined) 11.6 µM
Cc1ccccc1NC(=O)C(C)n1c(=O)cc(-c2ccccc2)c2c(C)nn(C)c21 (centres undefined) 2.67 µM
O=C(O)CCCCCN1C(=O)CC(c2ccc(Cl)cc2)CC1=O 18.2 µM
CC(C)c1ccc(/C=C/C(=O)N2CCc3ccccc3C2)cc1 21.1 µM
CC1=C(C)C(N(c2ccccc2)c2ccccc2)N(CCC(C)C)C1=O (centres undefined) 19.2 µM

Reference: PubChem BioAssay AID1645864 (Buhrlage Lab, Dana-Farber Cancer Institute and Novartis …, 2021)
